Drawing on patent publication US20140128385A1 (NOVARTIS AG, priority 2011, published 2014), this text covers IC50 for 31 compounds.

Where a name gives a salt, the structure may show the parent alone.

Usually IC50 stands for the concentration that gives 50% inhibition.

The target of the experiment is T1, BACE-2 (Homo sapiens, UniProt Q9Y5Z0).
T1 construct: Recombinant BACE-2 (extracellular domain, expressed in baculovirus and purified using standard methods); made in house
T1 sequence (Q9Y5Z0 63-473 limits assumed): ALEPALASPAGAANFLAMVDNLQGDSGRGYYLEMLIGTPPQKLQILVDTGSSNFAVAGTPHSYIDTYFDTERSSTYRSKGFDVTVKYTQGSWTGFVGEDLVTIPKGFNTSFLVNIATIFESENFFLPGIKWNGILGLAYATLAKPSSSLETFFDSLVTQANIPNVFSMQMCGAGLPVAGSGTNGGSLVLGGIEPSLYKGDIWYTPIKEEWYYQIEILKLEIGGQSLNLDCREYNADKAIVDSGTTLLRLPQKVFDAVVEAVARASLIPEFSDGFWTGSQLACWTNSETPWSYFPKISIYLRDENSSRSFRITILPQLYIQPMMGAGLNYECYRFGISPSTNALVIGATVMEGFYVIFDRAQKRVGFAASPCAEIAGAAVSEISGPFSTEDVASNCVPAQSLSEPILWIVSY
The experiment is described as follows: assay for inhibition of BACE-2. It counts as biochemical.
Take “5-Bromo-pyridine-2-carboxylic acid[3-((S)-3-amino-5-difluoromethyl-2,5,6,7-tetrahydro-[1,4]oxazepin-5-yl)-4-fluoro-phenyl]-amide hydrochloride [Example 96]”: the IC50 is 44 nM.

Compound `CCC1C(N)=NC(C)(c2cccc(NC(=O)c3ccc(Br)cn3)c2)C(=O)N1C` (mixture of isomers) [Example 200, 5-Bromo-pyridine-2-carboxylic acid [3-(6-amino-5-ethyl-2,4-dimethyl-3-oxo-2,3,4,5-tetrahydro-pyrazin-2-yl)-phenyl]-amide] displayed an IC50 of 1250 nM.

Consider `Cc1cc(C#N)cnc1C(=O)Nc1ccc(F)c(C2(C)COC(CF)(CF)C(N)=N2)c1` (racemic) [Example 251, 5-Cyano-3-methyl-pyridine-2-carboxylic acid [3-(5-amino-6,6-bis-fluoromethyl-3-methyl-3,6-dihydro-2H-[1,4]oxazin-3-yl)-4-fluoro-phenyl]-amide], for which the IC50 amounted to 41 nM.

Take `CC1(c2cccc(NC(=O)c3ccc(Br)cn3)n2)COCC(N)=N1` (racemic) [Example 258, 5-Bromo-pyridine-2-carboxylic acid [6-(5-amino-3-methyl-3,6-dihydro-2H-[1,4]-oxazin-3-yl)-pyridin-2-yl]-amide]: the 50% inhibitory concentration (IC50) stood at 363 nM.

`C[C@@]1(c2cccc(NC(=O)c3ccc(Br)cn3)c2)CO[C@@](C)(C(F)(F)F)C(N)=N1` (relative stereo) [Example 66, 5-Bromo-pyridine-2-carboxylic acid [3-((3R*,6R*)-5-amino-3,6-dimethyl-6-trifluoromethyl-3,6-dihydro-2H-[1,4]oxazin-3-yl)-phenyl]-amide hydrochloride] yielded a concentration for half-maximal inhibition (IC50) of 6 nM. This IC50 is about 60-fold lower than that of the compound before.

The compound `C[C@H]1OC[C@](c2cc(NC(=O)c3ccc(C#N)cn3)ccc2F)(C(F)F)N=C1N` (relative stereo) [Example 75, 5-Cyano-pyridine-2-carboxylic acid [3-((3R*,6R*)-5-amino-3-difluoromethyl-6-methyl-3,6-dihydro-2H-[1,4]oxazin-3-yl)-4-fluoro-phenyl]-amide hydrochloride] came in with an IC50 of 355 nM.

Compound `C[C@@H]1OC[C@](c2cc(NC(=O)c3ccc(C#N)cn3)ccc2F)(C(F)F)N=C1N` (relative stereo) [Example 76, 5-Cyano-pyridine-2-carboxylic acid [3-((3R*,6S*)-5-amino-3-difluoromethyl-6-methyl-3,6-dihydro-2H-[1,4]oxazin-3-yl)-4-fluoro-phenyl]-amide hydrochloride] registered an IC50 of 175 nM.

As to `C[C@H]1OC[C@](c2cc(NC(=O)c3ccc(Br)cn3)ccc2F)(C(F)F)N=C1N` (relative stereo) [Example 77, 5-Bromo-pyridine-2-carboxylic acid [3-((3R*,6R*)-5-amino-3-difluoromethyl-6-methyl-3,6-dihydro-2H-[1,4]oxazin-3-yl)-4-fluoro-phenyl]-amide hydrochloride], half-maximal inhibition (IC50) required 42 nM. Against the preceding compound, the IC50 is about 4.2-fold lower.

As to `C[C@@H]1OC[C@](c2cc(NC(=O)c3ccc(Br)cn3)ccc2F)(C(F)F)N=C1N` (relative stereo) [Example 78, 5-Bromo-pyridine-2-carboxylic acid [3-((3R*,6S*)-5-amino-3-difluoromethyl-6-methyl-3,6-dihydro-2H-[1,4]oxazin-3-yl)-4-fluoro-phenyl]-amide hydrochloride], the IC50 was 22 nM.

For the compound `Cc1cc(OC(F)F)cnc1C(=O)Nc1ccc(F)c([C@]2(C(F)F)CNCC(N)=N2)c1` (single isomer, unassigned) [Example 212], the midpoint of inhibition, the IC50, lay at 116 nM.

With `COc1cnc(C(=O)Nc2ccc(F)c([C@]3(C(F)F)CNCC(N)=N3)c2)c(N)n1` (single isomer, unassigned) [Example 213], half-maximal inhibition (IC50) was put at 115 nM.

The compound `Cc1cc(C#N)cnc1C(=O)Nc1ccc(F)c([C@]2(C)COC(CF)(CF)C(N)=N2)c1` (single isomer, unassigned) [Example 252] gave a concentration for half-maximal inhibition (IC50) of 33 nM.

The compound `CC1(c2cccc(NC(=O)c3ccco3)c2)COCC(N)=N1` (stereo not shown) [Example 1, Furan-2-carboxylic acid [3-(5-amino-3-methyl-3,6-dihydro-2H-[1,4]oxazin-3-yl)-phenyl]-amide hydrochloride] had a half-maximal inhibitory concentration (IC50) of 61 nM. This IC50 lies about 1.8-fold higher than the previous one.

`CC1(c2cccc(NC(=O)c3ccc(Br)cn3)c2)COCC(N)=N1` (stereo not shown) [Example 2, 5-Bromo-pyridine-2-carboxylic acid [3-(5-amino-3-methyl-3,6-dihydro-2H-[1,4]oxazin-3-yl)-phenyl]-amide hydrochloride] came in with a concentration for half-maximal inhibition (IC50) of 87 nM.

Compound `C[C@@]1(c2cccc(NC(=O)c3ccc(Br)cn3)c2)COCC(N)=N1` [Example 3, 5-Bromo-pyridine-2-carboxylic acid [3-((R)-5-amino-3-methyl-3,6-dihydro-2H-[1,4]oxazin-3-yl)-phenyl]-amide hydrochloride] displayed an IC50 of 56 nM.

For the compound `C[C@]1(c2cccc(NC(=O)c3ccc(Br)cn3)c2)COCC(N)=N1` [Example 4, 5-Bromo-pyridine-2-carboxylic acid [3-((S)-5-amino-3-methyl-3,6-dihydro-2H-[1,4]oxazin-3-yl)-phenyl]-amide hydrochloride], the 50% inhibitory concentration (IC50) is above 10000 nM.

Regarding `Cc1nc(C(=O)Nc2cccc(C3(C)COCC(N)=N3)c2)co1` (stereo not shown) [Example 5, 2-Methyl-oxazole-4-carboxylic acid [3-(5-amino-3-methyl-3,6-dihydro-2H-[1,4]oxazin-3-yl)-phenyl]-amide hydrochloride], the midpoint of inhibition, the IC50, lay at 373 nM. This lies in the sub-micromolar range.

As to `Cc1cnc(C(=O)Nc2cccc(C3(C)COCC(N)=N3)c2)cn1` (stereo not shown) [Example 6, 5-Methyl-pyrazine-2-carboxylic acid [3-(5-amino-3-methyl-3,6-dihydro-2H-[1,4]oxazin-3-yl)-phenyl]-amide hydrochloride], the IC50 came to 3440 nM.

Consider `CC1(c2cccc(NC(=O)c3ncc(Br)cn3)c2)COCC(N)=N1` (stereo not shown) [Example 7, 5-Bromo-pyrimidine-2-carboxylic acid [3-(5-amino-3-methyl-3,6-dihydro-2H-[1,4]oxazin-3-yl)-phenyl]-amide hydrochloride], for which the IC50 worked out at 309 nM.

As to `CC1(c2cccc(NC(=O)c3cn4ccccc4n3)c2)COCC(N)=N1` (stereo not shown) [Example 8, Imidazo[1,2-a]pyridine-2-carboxylic acid [3-(5-amino-3-methyl-3,6-dihydro-2H-[1,4]oxazin-3-yl)-phenyl]-amide hydrochloride], 7230 nM corresponded to half-maximal inhibition (IC50).

Consider `CC1(c2cccc(NC(=O)c3ncccc3F)c2)COCC(N)=N1` (stereo not shown) [Example 9, 3-Fluoro-pyridine-2-carboxylic acid [3-(5-amino-3-methyl-3,6-dihydro-2H-[1,4]oxazin-3-yl)-phenyl]-amide hydrochloride], for which 663 nM corresponded to half-maximal inhibition (IC50). Against the preceding compound, the IC50 is about 11-fold lower.

In turn, `Cc1nc(C(=O)Nc2cccc(C3(C)COCC(N)=N3)c2)c(C)o1` (stereo not shown) [Example 10, 2,5-Dimethyl-oxazole-4-carboxylic acid [3-(5-amino-3-methyl-3,6-dihydro-2H-[1,4]oxazin-3-yl)-phenyl]-amide hydrochloride] displayed an IC50 of 289 nM.

`Cc1nc(C(=O)Nc2cccc(C3(C)COCC(N)=N3)c2)cs1` (stereo not shown) [Example 11, 2-Methyl-thiazole-4-carboxylic acid [3-(5-amino-3-methyl-3,6-dihydro-2H-[1,4]oxazin-3-yl)-phenyl]-amide hydrochloride] had a half-inhibitory concentration (IC50) of 1060 nM.

In turn, `CC1(c2cccc(NC(=O)c3ccc(O)nn3)c2)COCC(N)=N1` (stereo not shown) [Example 12, 6-Hydroxy-pyridazine-3-carboxylic acid [3-(5-amino-3-methyl-3,6-dihydro-2H-[1,4]oxazin-3-yl)-phenyl]-amide hydrochloride] came in with a concentration for half-maximal inhibition (IC50) of 2260 nM.

As to `CC1(c2cccc(NC(=O)c3ccccn3)c2)COCC(N)=N1` (stereo not shown) [Example 13, Pyridine-2-carboxylic acid [3-(5-amino-3-methyl-3,6-dihydro-2H-[1,4]oxazin-3-yl)-phenyl]-amide hydrochloride], the 50% inhibitory concentration (IC50) is 431 nM.

Compound `CC1(c2cccc(NC(=O)c3ccc(C#N)cn3)c2)COCC(N)=N1` (stereo not shown) [Example 14, 5-Cyano-pyridine-2-carboxylic acid [3-(5-amino-3-methyl-3,6-dihydro-2H-[1,4]oxazin-3-yl)-phenyl]-amide hydrochloride] returned an IC50 of 335 nM.

In turn, `CC1(c2cccc(NC(=O)c3cnc(-n4ccc(C(F)(F)F)n4)cn3)c2)COCC(N)=N1` (stereo not shown) [Example 15, 5-(3-Trifluoromethyl-pyrazol-1-yl)-pyrazine-2-carboxylic acid [3-(5-amino-3-methyl-3,6-dihydro-2H-[1,4]oxazin-3-yl)-phenyl]-amide hydrochloride] came in with an IC50 of 6590 nM.

As to `CC1(c2cccc(NC(=O)c3ncc(C(F)(F)F)cc3Cl)c2)COCC(N)=N1` (stereo not shown) [Example 17, 3-Chloro-5-trifluoromethyl-pyridine-2-carboxylic acid [3-(5-amino-3-methyl-3,6-dihydro-2H-[1,4]oxazin-3-yl)-phenyl]-amide hydrochloride], the half-inhibitory concentration (IC50) came out at 694 nM.

`COc1cnc(C(=O)Nc2cccc(C3(C)COCC(N)=N3)c2)cn1` (stereo not shown) [Example 18, 5-Methoxy-pyrazine-2-carboxylic acid [3-(5-amino-3-methyl-3,6-dihydro-2H-[1,4]oxazin-3-yl)-phenyl]-amide hydrochloride] yielded an IC50 of 1660 nM.

In turn, `CC1(c2cccc(NC(=O)c3cnc(O)cn3)c2)COCC(N)=N1` (stereo not shown) [Example 19] gave an IC50 of 3180 nM. This IC50 is about 1.9-fold higher than that of the compound before.

`CC1(c2cccc(NC(=O)c3cc(Br)co3)c2)COCC(N)=N1` (stereo not shown) [Example 20, 4-Bromo-furan-2-carboxylic acid [3-(5-amino-3-methyl-3,6-dihydro-2H-[1,4]oxazin-3-yl)-phenyl]-amide hydrochloride]: the concentration for half-maximal inhibition (IC50) stood at 226 nM.
